# Laboratory results: US20050137130A1, “Medical treatment” (priority 2001, published 2005)
# Tests used:
# Assay type in all cases: cell-based
# [1] = system: Mouse CD4+T-cells; test: ELISA assay for Notch signalling modulator activity in mouse CD4+ cells (IL-10, plate-bound hDelta1-IgG4Fc); conditions: all concentrations tested, added at start of culture, day 3
# Experimental: Spleens were removed from female Balb/c mice 8-10 weeks old and passed through a […] cell strainer into 20 ml R10F medium (R10F-RPMI 1640 media (Gibco Cat No 22409) plus 2 mM L-glutamine, 50 μg/ml Penicillin, 50 μg/ml Streptomycin, 5×10^−5 M β-mercapto-ethanol in 10% fetal calf serum). The cell suspension was spun (1150 rpm 5 min) and the media removed.
# The cells were incubated for 4 minutes with 5 ml ACK lysis buffer (0.15M NH4Cl, […], O. 1 mM Na2EDTA in double distilled water) per spleen (to lyse red blood cells). The cells were then washed once with R10F medium and counted. CD4+ cells were purified from the suspensions by positive selection on a Magnetic Associated Cell Sorter (MACS) column (Miltenyi Biotec, Bisley, UK: Cat No 130-042-401) using CD4 (L3T4) beads (Miltenyi Biotec Cat No 130-049-201), according to the manufacturer's directions. […]
# Mouse CD4+T-cells (prepared as above) were cultured at 2×10^5/well on anti-CD3 coated plates with or without plate-bound hDelta1-IgG4Fc fusion protein (prepared as described above) and soluble anti-CD28. […] Soluble hDelta1-IgG4Fc fusion protein was added into culture at the start at the concentrations shown and IL-10 was measured in supernatants on day 3 by ELISA using antibody pairs from R & D Systems (Abingdon, UK).
# [2] = system: Notch signalling from Jagged1 (A20-Jagged cells, human Jagged1); test: Antagonism of A20-Jagged Notch signalling (N27#11 luciferase reporter); conditions: A20-Jagged cells 1×10^5 per well; IgG4 as control
# Excerpt: (§1) The IVS, IRES, Neo and pA elements were removed from plasmid pIRESneo2 (Clontech, USA) and inserted into a pUC cloning vector downstream of a chicken beta-actin promoter (eg see GenBank Accession No E02199). Mouse Delta-1 cDNA (eg see GenBank Accession No NM_007865) was inserted between the actin promoter and IVS elements and a sequence with multiple stop codons in all three reading frames was inserted between the Delta and IVS elements.
# (§2) The resulting construct was transfected into A20 cells using electroporation and G418 to provide A20 cells expressing mouse Delta1 on their surfaces (A20-Delta).
# Corresponding cells (A20-Jagged) were prepared using human Jagged1 cDNA (see e.g. GenBank Accession No U61276).
# (§3) The procedure of Example was repeated using A20-Delta or A20-Jagged cells (1×10^5 per well) in place of CHO-Delta cells. IgG4 was used as a control.
# [3] = system: Notch signalling from Delta (A20-Delta cells, mouse Delta1); test: Antagonism of A20-Delta Notch signalling (N27#11 luciferase reporter); conditions: A20-Delta cells 1×10^5 per well; IgG4 as control
# Excerpt: as §1, §2, §3
substance,measurement,setting,value
hDelta1-IgG4Fc: fusion protein comprising the extracellular domain of human Delta1 fused to the Fc domain of human IgG4 (SEQ ID NO: 5),effect of soluble protein on increased IL-10 release induced by plate-bound hDelta1-IgG4Fc,[1],substantially reversed
same,inhibition of Notch signalling from Jagged1,[2],able to inhbit Notch signalling
same,inhibition of Notch signalling from Delta,[3],able to inhbit Notch signalling
